{"source": "patent US20110190834A1", "about": "“DEVICES AND METHODS FOR SUPPRESSION OF SYMPATHOEXCITATION” (priority 2010, published 2011)", "key": {"[1]": {"settings": "European (EMIAT) and Canadian (CAMIAT) post-myocardial infarction studies; cited from earlier work"}, "[2]": {"experiment": "Heart rate and blood pressure at peak exercise and in recovery, with atropine given during exercise", "assay_type": "in vivo, human", "protocol": "In experiments performed during development of embodiments of the present invention, the parasympathetic effects on cardiac electrophysiology during the post-exercise recovery period were studied. Subjects underwent upright bicycle exercise testing on two occasions. Continuous 12-lead ECG monitoring was performed using a commercially available system (Quest Exercise Stress System, Burdick, Deerfield Wis.) for a baseline period of 5 minutes prior to exercise. Subjects underwent a 16-minute submaximal exercise protocol on a stationary bicycle with an initial work load of 50 Watts followed by increases to 75 Watts at 4 minutes and 100 Watts at 8 minutes, as tolerated by the patient. Continuous ECG was recorded for up to 45 minutes of recovery. Blood samples for determination of plasma epinephrine and norepinephrine samples were taken during the rest period, at minutes 8 and 15 of exercise, and during the recovery period at 5, 10, 20, 30, and 45 minutes after cessation of exercise. […]"}, "[3]": {"settings": "Atropine test"}, "[4]": {"settings": "atropine test versus baseline test"}, "[5]": {"settings": "peak exercise, iv atropine 0.04 mg/kg from minute 12 of exercise"}, "[6]": {"settings": "recovery 5 min, iv atropine 0.04 mg/kg during exercise"}, "[7]": {"settings": "recovery 10 min, iv atropine 0.04 mg/kg during exercise"}, "[8]": {"settings": "recovery 20 min, iv atropine 0.04 mg/kg during exercise"}, "[9]": {"settings": "recovery 30 min, iv atropine 0.04 mg/kg during exercise"}}, "note": "Read-outs that look alike come from different tables or passages of the source."}
{"smiles": "CCCCc1oc2ccccc2c1C(=O)c1cc(I)c(OCCN(CC)CC)c(I)c1", "note": "[Amiodarone]", "values": [{"measurement": "effect on total mortality", "setting": "[1]", "result": "has not been shown to have a beneficial effect"}]}
{"smiles": "CN1[C@@H]2CC[C@H]1C[C@@H](OC(=O)C(CO)c1ccccc1)C2", "note": "(some centres unmarked) [Atropine, atropine]", "values": [{"measurement": "change in diastolic blood pressure", "setting": "[2]; [4]", "result": "no detectable changes"}, {"measurement": "change in heart rate", "setting": "[2]; [4]", "result": "large changes in heart rate"}, {"measurement": "change in systolic blood pressure", "setting": "[2]; [4]", "result": "no detectable changes"}, {"measurement": "Diastolic BP", "setting": "[2]; [5]", "result": "83 ± 14", "unit": "mmHg"}, {"measurement": "Systolic BP", "setting": "[2]; [5]", "result": "162 ± 25", "unit": "mmHg"}, {"measurement": "Diastolic BP", "setting": "[2]; [6]", "result": "78 ± 9", "unit": "mmHg"}, {"measurement": "HEART RATE", "setting": "[2]; [6]", "result": "110 ± 16", "unit": "bpm"}, {"measurement": "Systolic BP", "setting": "[2]; [6]", "result": "122 ± 15", "unit": "mmHg"}, {"measurement": "Diastolic BP", "setting": "[2]; [7]", "result": "78 ± 9", "unit": "mmHg"}, {"measurement": "HEART RATE", "setting": "[2]; [7]", "result": "106 ± 16", "unit": "bpm"}, {"measurement": "Systolic BP", "setting": "[2]; [7]", "result": "120 ± 16", "unit": "mmHg"}, {"measurement": "Diastolic BP", "setting": "[2]; [8]", "result": "78 ± 11", "unit": "mmHg"}, {"measurement": "HEART RATE", "setting": "[2]; [8]", "result": "102 ± 15", "unit": "bpm"}, {"measurement": "Systolic BP", "setting": "[2]; [8]", "result": "118 ± 14", "unit": "mmHg"}, {"measurement": "Diastolic BP", "setting": "[2]; [9]", "result": "79 ± 9", "unit": "mmHg"}, {"measurement": "HEART RATE", "setting": "[2]; [9]", "result": "99 ± 14", "unit": "bpm"}, {"measurement": "Systolic BP", "setting": "[2]; [9]", "result": "117 ± 14", "unit": "mmHg"}, {"measurement": "ln(NE) mean", "setting": "[3]; 30th min recovery, N=81", "result": 6.31}, {"measurement": "ln(NE) mean", "setting": "[3]; rest (before exercise and before atropine), N=90", "result": 6.38}]}
